Measured values reported in article PMC8466373, “Plant-Derived and Dietary Hydroxybenzoic Acids—A Comprehensive Study of Structural, Anti-/Pro-Oxidant, Lipophilic, Antimicrobial, and Cytotoxic Activity in MDA-MB-231 and MCF-7 Cell Lines” (Nutrients, 2021).
Values after ≈ are worked out from the molar mass of the structure shown. Like-named read-outs stand apart in the source and are kept apart here. Marks after values point to notes of the source that are not given here.

Experiments:
[1] = Lipophilicity via RP-HPLC; format: physicochemical
Protocol: The analyses were carried out on the following chromatographic columns: RP-18e Purospher STAR (C18), 150 mm × 4.0 mm, 5 µm, (Merck, Darmstadt, Germany); RP-8e Purospher STAR (C8), 150 mm × 4.6 mm, 5 µm, (Merck, Darmstadt, Germany); Zorbax Eclipse XDB-CN (CN), 150 mm × 4.6 mm, 5 µm, (Agilent Technologies, Santa Clara, CA, USA); Nucleosil Phenyl (PHE), 250 mm × 4.6 mm, 7 µm, (Supelco, Bellefonte, PA, USA); and Regis Rexchrom IAM.PC.DD.2 (IAM), 100 mm × 4.6 mm, 10 µm, (Regis Technologies Inc., Morton Grave, IL, USA). The experimental conditions and the calculations were as described in [46].

[2] = test system: Staphylococcus aureus (PCM 2267); test: MIC by serial dilution in agar medium; format: cell-based; conditions: read-out: MIC
Protocol: (§1) The following bacterial strains were used in this study: Escherichia coli (PCM 2857), Pseudomonas aeruginosa (PCM 2720), Bacillus subtilis (PCM 2850), Staphylococcus aureus (PCM 2267), Salmonella enteritidis (NCTC 4776), and Candida albicans (PCM 2566-FY). The microbial strains were bought from the Polish Collection of Microorganisms (Wroclaw, Poland) or the American Type Culture Collection. Bacteria (0.1 mL of the reconstituted suspension) were seeded onto sterile Mueller–Hinton agar plates (Biomaxima), to which previously suitable amounts of the tested compounds were added to give the desired concentration.
(§2) The MIC (minimal inhibitory concentration) was determined by serial dilution of the tested compound in an agar medium, to which the appropriate inoculum of microorganisms was then added and incubated. Escherichia coli, Pseudomonas aeruginosa, Staphylococcus aureus, Bacillus subtilis, Salmonella enteritidis, and Candida albicans were grown overnight and then resuspended in physiological saline to an optical density at 600 nm (OD = 600) of 0.60, corresponding to 5.0 × 10^8 CFU/mL. Bacteria (0.1 mL of the reconstituted suspension) were seeded onto sterile Mueller–Hinton agar plates, to which previously suitable amounts of the tested compounds were added to reach the desired concentration. Tested chemicals were dissolved in DMSO solution. Negative controls were agar plates, to which DMSO was added, while positive controls were plates with gentamycin (in the case of bacteria) or flucanozole (in the case of fungi). The plates were incubated at 37 °C for 24 h. The lowest concentration without visible bacterial growth was determined as the MIC.

[3] = test system: Pseudomonas aeruginosa (PCM 2720); test: MIC by serial dilution in agar medium; format: cell-based; conditions: read-out: MIC
Protocol: as §1, §2

[4] = test system: Escherichia coli (PCM 2857); test: MIC by serial dilution in agar medium; format: cell-based; conditions: read-out: MIC
Protocol: as §1, §2

[5] = test system: Bacillus subtilis (PCM 2850); test: MIC by serial dilution in agar medium; format: cell-based; conditions: read-out: MIC
Protocol: as §1, §2

[6] = test system: Candida albicans (PCM 2566-FY); test: MIC by serial dilution in agar medium; format: cell-based; conditions: read-out: MIC
Protocol: as §1, §2

[7] = CABTS = 7 mM, t = 6 min, ref 73; read-out: ABTS, IC50; cited from earlier work
[8] = test system: Salmonella enteritidis (NCTC 4776); test: MIC by serial dilution in agar medium; format: cell-based; conditions: Salmonella enterica; Salmonella enteritidis; read-out: MIC
Protocol: The following bacterial strains were used in this study: Escherichia coli (PCM 2857), Pseudomonas aeruginosa (PCM 2720), Bacillus subtilis (PCM 2850), Staphylococcus aureus (PCM 2267), Salmonella enteritidis (NCTC 4776), and Candida albicans (PCM 2566-FY). The microbial strains were bought from the Polish Collection of Microorganisms (Wroclaw, Poland) or the American Type Culture Collection.
as §2

[9] = ref 102; cited from earlier work
[10] = ABTS assay; format: biochemical; conditions: 50 μM, methanolic solutions, 7 min of reaction time
Protocol: ABTS assay was conducted according to the procedure of Re et al.. […] The absorbance of the solutions was measured with a UV–Vis spectrophotometer at 734 nm against methanol (the blank). The ability to scavenge ABTS^•+ cation radicals was expressed as the %I of ABTS^•+ and calculated according to the aforementioned equation.

[11] = test system: E. coli, P. aeruginosa, S. aureus, B. subtilis, S. enteritidis, and C. albicans; test: MIC, stated for all tested strains together; format: cell-based; conditions: all of the tested strains
Protocol: as §1, §2

[12] = FRAP assay (ferric-reducing antioxidant power); format: biochemical; set-up: key: (-): Negative values were obtained for these acids; conditions: concentration of 50 μM, methanolic solutions
Protocol: FRAP assay was carried out as described in [42]. […] After 8 min of incubation at 23 °C, the absorbance at 595 nm was measured against the blank (containing 0.4 mL of methanol instead of the sample). Ferric-reducing antioxidant activity was expressed as Fe(II) ion equivalents (μM) using the calibration curve obtained for FeSO4 (the standard curve equation: y = 3.4303x − 0.1058; R^2 = 0.9984).

[13] = C = 0,001 mg/mL, λ = 593 nm, t = 30 min; cited from earlier work
[14] = Cytotoxicity, neutral red (NR) assay; format: cell-based, human; conditions: human, 48 h treatment, neutral red assay
Protocol: Briefly, MCF-7 cells were cultured in EMEM (Biological Industries, Israel) medium supplemented with 10% fetal calf serum (Gibco). MDA-MB-231 cells were cultured in Leibovitz‘s L15 (Biological Industries, Beit HaEmek, Israel) medium supplemented with 10% fetal calf serum (Gibco). The MCF-7 cells were incubated in a 5% CO2 atmosphere at 37 °C, whereas the MDA-231 cells were incubated in a 100% air atmosphere at 37 °C.
Cytotoxicity evaluation was conducted to assess the impact of hydroxybenzoic acids on the proliferation of MCF-7 and MDA-MB-231 cells, which was measured via neutral red (NR) assay. In brief, cells were seeded in 96-well microplates (TPP, Switzerland) at a density of 2 × 10^4 cells/well in 100 μL of culture medium. At least three independent experiments in six replicate wells were conducted per concentration. Twenty-four hours after cell seeding, cells were treated with increasing concentrations of hydroxybenzoic acids (0.02–5 mM) for forty-eight hours. After treatment, cells were incubated for 3 h at 37 °C with 100 µL of neutral red solution (stock solution of NR) (Sigma-Aldrich), and then 5 mg/mL of PBS was diluted 1:100 in cell culture medium, incubated for 12 h at 37 °C, and centrifuged to remove any undissolved NR powder. […] After 15 min of gentle shaking, optical density was read at 540 nm with an Infinite M200 plate reader spectrophotometer (Tecan, Austria).

[15] = cited from earlier work

## O=C(O)c1ccc(O)cc1O [2,4-DHB, 2,4-Dihydroxybenzoic acid]
[1]; C8 column
  log kw: 1.81
  ϕ0: 1.38
[1]; C18 column
  log kw: 2.66
  ϕ0: 0.57
[1]; CN column
  log kw: 2.06
  ϕ0: 1.15
[1]; IAM column
  log kw: 1.14
  ϕ0: 1.00
[1]; PHE column
  log kw: 1.39
  ϕ0: 1.05
[2]
  MIC: 2000 mg/L (≈ 13 mM)
[3]
  MIC: 2000 mg/L (≈ 13 mM)
[4]
  MIC: 2000 mg/L (≈ 13 mM)
[5]
  MIC: 2000 mg/L (≈ 13 mM)
[6]
  MIC: 2000 mg/L (≈ 13 mM)
[7]
  IC50: 0.169 mM
[8]
  MIC: 2000 mg/L (≈ 13 mM)
[9]
  LogPexp.: 1.63 [102]
[10]
  Inhibition of ABTS•+ radicals (%I): 16.17%
[11]
  MIC: 2000 mg/L (≈ 13 mM)
[12]
  FRAP: (-) *
[13]
  FRAP: ≈ 0.012 (C = 0,001 mg/mL), λ = 593 nm, t = 30 min) [73] μM Fe^2+
[14]; read-out: Cytotoxicity (mM) in Cell Line MCF-7, IC50
  IC50 at 48 h: > 5 mM
[14]; read-out: Cytotoxicity (mM) in Cell Line MDA-MB-231, IC50
  IC50 at 48 h: 4.77 mM
[15]; at 25 °C
  pKaexp.: 3.11
[15]; ref 104
  pKaexp.: 3.11
[15]; ref 105
  pKaexp.: 3.1
